Tests used:
[1] = tested on: rabbit aorta rings; experiment: Vasorelaxant effect in vitro (phenylephrine-contracted aorta rings); conditions: Oryctolagus cuniculus, phenylephrine contraction, read-out: IC50 (concentration reducing height of phenylephrine contraction by 50%)
Description: Rabbits are stunned by a blow to the neck and exsanguinated. The aorta is removed, freed from adhering tissue and divided into rings of a width of 1.5 mm. The rings are placed individually under an initial tension in 5 ml organ baths with Krebs-Henseleit solution which is at 37° C., is gassed with carbogen and has the following composition (in each case mM): sodium chloride 119; potassium chloride: 4.8; calcium chloride dihydrate: 1; magnesium sulphate heptahydrate: 1.4; potassium dihydrogenphosphate: 1.2; sodium bicarbonate: 25; glucose: 10. The force of contraction is detected with Statham UC2 cells, amplified and digitized via A/D converters (DAS-1802 HC, Keithley Instruments, Munich) and recorded in parallel on chart recorders. To produce a contraction, phenylephrine is added to the bath cumulatively in increasing concentration. After several control cycles, the substance to be investigated is added in each further run in increasing dosage in each case, and the height of the contraction achieved is compared with the height of the contraction reached in the last preceding run. The concentration necessary to reduce the height of the control value by 50% is calculated from this (IC50 value). The standard administration volume is 5 μl and the proportion of DMSO in the bath solution corresponds to 0.1%.

[2] = molecular target: T1, recombinant guanylate cyclase reporter cell line (Rattus norvegicus, UniProt P19686+P20595); experiment: Effect on a recombinant guanylate cyclase reporter cell line; format: cell-based
T1 construct: expressed in transfected cells
T1 sequence (P20595 1-619): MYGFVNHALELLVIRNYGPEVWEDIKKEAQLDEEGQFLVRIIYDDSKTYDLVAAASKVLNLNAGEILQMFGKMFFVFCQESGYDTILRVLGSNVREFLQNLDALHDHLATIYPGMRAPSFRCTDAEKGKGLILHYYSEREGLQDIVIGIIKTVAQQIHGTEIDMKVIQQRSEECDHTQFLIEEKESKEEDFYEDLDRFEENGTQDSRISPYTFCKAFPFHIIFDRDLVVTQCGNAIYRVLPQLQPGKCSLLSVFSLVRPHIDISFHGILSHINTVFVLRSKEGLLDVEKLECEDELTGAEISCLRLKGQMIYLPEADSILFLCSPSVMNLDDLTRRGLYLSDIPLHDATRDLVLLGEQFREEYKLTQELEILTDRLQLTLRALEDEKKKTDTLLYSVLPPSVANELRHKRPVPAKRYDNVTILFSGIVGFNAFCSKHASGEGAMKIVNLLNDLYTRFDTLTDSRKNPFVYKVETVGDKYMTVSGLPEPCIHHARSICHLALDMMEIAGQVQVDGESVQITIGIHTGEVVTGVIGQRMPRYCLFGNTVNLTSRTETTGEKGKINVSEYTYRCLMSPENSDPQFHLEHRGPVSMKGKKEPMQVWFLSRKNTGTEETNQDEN
T1 sequence (P19686 1-690): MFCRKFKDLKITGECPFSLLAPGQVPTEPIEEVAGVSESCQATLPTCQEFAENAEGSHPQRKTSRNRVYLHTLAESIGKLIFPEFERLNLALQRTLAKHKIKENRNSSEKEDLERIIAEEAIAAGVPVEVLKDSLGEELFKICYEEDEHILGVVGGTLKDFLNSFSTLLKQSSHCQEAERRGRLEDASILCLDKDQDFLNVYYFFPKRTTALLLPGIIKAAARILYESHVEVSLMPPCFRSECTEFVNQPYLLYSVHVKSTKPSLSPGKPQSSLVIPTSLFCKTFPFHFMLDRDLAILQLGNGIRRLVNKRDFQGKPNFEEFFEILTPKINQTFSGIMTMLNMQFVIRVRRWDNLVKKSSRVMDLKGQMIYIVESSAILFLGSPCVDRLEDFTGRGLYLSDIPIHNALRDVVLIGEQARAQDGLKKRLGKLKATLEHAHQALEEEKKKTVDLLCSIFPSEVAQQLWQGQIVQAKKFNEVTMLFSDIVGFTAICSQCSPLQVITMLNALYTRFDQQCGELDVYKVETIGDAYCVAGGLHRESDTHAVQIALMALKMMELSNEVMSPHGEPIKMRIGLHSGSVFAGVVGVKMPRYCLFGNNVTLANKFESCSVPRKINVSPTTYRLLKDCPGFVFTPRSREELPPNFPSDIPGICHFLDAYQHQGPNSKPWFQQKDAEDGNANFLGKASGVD
Description: The cellular activity of the compounds according to the invention is determined using a recombinant guanylate cyclase reporter cell line, as described in F. Wunder et al., Anal. Biochem. 339, 104-112 (2005).

Row | Structure (SMILES) | IC50 [1] | MEC (minimum effective concentration) [2]
1 | COC(=O)Nc1c(N)nc(-c2nn(Cc3ccccc3F)c3ncc(F)cc23)nc1N [Example 1, Methyl {4,6-diamino-2-[5-fluoro-1-(2-fluorobenzyl)-1H-pyrazolo[3,4-b]pyridin-3-yl]pyrimidin-5-yl}carbamate] | 958 nM | 0.3 µM
2 | COC(=O)N(C)c1c(N)nc(-c2nn(Cc3ccccc3F)c3ncc(F)cc23)nc1N [Example 2] | 251 nM | 0.1 µM
3 | COC(=O)N(CC(F)(F)F)c1c(N)nc(-c2nn(Cc3ccccc3F)c3ncc(F)cc23)nc1N [Example 3, Methyl {4,6-diamino-2-[5-fluoro-1-(2-fluorobenzyl)-1H-pyrazolo[3,4-b]pyridin-3-yl]pyrimidin-5-yl}(2,2,2-trifluoroethyl)carbamate] | 515 nM | 0.03 µM
